Biological target: human Nav1.7 (Homo sapiens (Human), UniProt Q15858)
Assay: Nav 1.7 In Vitro PX Assay (PatchXpress whole cell voltage clamp)
Assay type: cell-based
Settings: in-vitro Nav 1.7 PX data
Experimental: HEK 293 cells stably transfected with human Nav1.7 were recorded in whole cell voltage clamp mode with the PatchXpress automated electrophysiology system (Molecular Devices, LLC, Sunnyvale, Calif.). Compound effects were measured on a partially inactivated state of the sodium channel. Cells were clamped to a holding potential yielding 20 to 50% inactivation. To elicit sodium current, channels were activated by pulsing to −10 mV for 20 msec. This voltage protocol was repeated at a rate of 0.1 Hz throughout the experiment. A single concentration of test compound was applied to cells for a duration of 3 minutes. Peak sodium current was measured at the end of the compound addition period to determine percent inhibition. Three to five cells were tested per concentration, and IC50 curves were fitted to percent inhibition as a function of concentration.

Chain of human Nav1.7 (Q15858 whole entry): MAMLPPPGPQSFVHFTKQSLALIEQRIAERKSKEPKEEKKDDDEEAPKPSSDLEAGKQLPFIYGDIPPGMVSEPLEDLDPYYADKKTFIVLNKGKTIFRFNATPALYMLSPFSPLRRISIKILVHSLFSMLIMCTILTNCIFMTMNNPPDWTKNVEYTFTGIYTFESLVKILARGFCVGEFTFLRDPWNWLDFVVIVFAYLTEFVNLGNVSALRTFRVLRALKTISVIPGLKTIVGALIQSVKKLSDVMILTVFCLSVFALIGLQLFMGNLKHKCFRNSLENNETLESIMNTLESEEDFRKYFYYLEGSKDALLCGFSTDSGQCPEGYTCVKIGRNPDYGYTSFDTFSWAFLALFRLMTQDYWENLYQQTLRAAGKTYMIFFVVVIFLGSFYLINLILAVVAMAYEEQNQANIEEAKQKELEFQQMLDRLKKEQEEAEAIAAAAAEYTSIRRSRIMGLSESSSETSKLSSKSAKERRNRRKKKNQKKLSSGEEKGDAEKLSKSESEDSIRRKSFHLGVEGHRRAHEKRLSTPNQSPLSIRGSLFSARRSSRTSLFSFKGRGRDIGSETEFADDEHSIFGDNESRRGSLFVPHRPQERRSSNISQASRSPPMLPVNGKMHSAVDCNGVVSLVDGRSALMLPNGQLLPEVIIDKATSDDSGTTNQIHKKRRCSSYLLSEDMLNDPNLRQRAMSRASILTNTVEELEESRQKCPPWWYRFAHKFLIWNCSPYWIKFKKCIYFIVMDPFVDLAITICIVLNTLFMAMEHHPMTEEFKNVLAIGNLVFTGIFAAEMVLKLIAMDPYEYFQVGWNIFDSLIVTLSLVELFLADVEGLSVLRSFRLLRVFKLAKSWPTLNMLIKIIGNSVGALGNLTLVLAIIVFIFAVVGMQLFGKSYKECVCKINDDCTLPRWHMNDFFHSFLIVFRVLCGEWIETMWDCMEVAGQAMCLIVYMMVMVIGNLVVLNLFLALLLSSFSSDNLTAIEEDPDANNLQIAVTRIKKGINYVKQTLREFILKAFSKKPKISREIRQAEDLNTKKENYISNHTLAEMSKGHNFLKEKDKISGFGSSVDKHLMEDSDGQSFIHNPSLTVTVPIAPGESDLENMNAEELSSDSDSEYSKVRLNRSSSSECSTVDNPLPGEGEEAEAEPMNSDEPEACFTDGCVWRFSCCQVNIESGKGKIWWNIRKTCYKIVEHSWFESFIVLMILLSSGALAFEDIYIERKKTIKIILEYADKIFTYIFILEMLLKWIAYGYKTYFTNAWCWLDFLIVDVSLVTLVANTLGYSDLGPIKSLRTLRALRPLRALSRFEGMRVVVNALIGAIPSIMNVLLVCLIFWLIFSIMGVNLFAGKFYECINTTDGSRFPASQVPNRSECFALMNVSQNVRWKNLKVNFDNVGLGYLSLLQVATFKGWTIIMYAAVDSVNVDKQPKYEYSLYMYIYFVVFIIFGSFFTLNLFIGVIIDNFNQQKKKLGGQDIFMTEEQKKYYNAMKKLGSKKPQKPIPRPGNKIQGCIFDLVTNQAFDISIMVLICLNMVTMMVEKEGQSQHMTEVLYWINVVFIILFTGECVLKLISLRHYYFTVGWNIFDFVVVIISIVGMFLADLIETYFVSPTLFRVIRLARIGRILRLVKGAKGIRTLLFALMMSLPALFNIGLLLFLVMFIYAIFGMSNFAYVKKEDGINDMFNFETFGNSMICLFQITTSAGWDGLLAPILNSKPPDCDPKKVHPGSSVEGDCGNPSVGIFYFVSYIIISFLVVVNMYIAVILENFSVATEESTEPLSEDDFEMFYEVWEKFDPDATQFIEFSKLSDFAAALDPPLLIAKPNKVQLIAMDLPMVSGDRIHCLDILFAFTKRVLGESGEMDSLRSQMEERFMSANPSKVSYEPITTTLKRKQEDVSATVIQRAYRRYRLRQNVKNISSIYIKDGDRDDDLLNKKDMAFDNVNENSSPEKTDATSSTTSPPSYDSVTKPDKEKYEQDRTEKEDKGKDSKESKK

`COC(=O)N(c1ccc(S(=O)(=O)Nc2ccon2)cn1)c1cc(Cl)c(-c2cccc(C(F)(F)F)c2)cc1OC` [Example 6, Methyl (2-chloro-5-methoxy-3′-(trifluoromethyl)-[1,1′-biphenyl]-4-yl)(5-(N-(isoxazol-3-yl)sulfamoyl)pyridine-2-yl)carbamate] was tested. Which IC50 did it give?
The IC50 was 167 nM.

Which IC50 does the source give for `CNC(=O)N(c1ccc(S(=O)(=O)Nc2ccon2)cn1)c1cc(Cl)c(-c2ccc(C)c(F)c2)cc1OC` [Example 1-62, 6-((2-chloro-3′-fluoro-5-methoxy-4′-methyl-4-biphenylyl)(methylcarbamoyl)amino)-N-3-isoxazolyl-3-pyridinesulfonamide] here?
The IC50 was 64 nM.

`CNC(=O)N(c1ccc(S(=O)(=O)Nc2ccon2)cn1)c1cc(F)c(-c2ccc(Cl)c(F)c2)cc1OC` [Example 1-20, 6-((4′-chloro-2,3′-difluoro-5-methoxy-4-biphenylyl)(methylcarbamoyl)amino)-N-3-isoxazolyl-3-pyridinesulfonamide] was tested. Which IC50 did it give?
The IC50 was 50 nM.

`CNC(=O)N(c1ccc(S(=O)(=O)Nc2ccon2)cn1)c1cc(-c2ccc(C)c(Cl)c2)ccc1OC` [Example 4-5, 6-((3′-chloro-4-methoxy-4′-methyl-3-biphenylyl)(methylcarbamoyl)amino)-N-3-isoxazolyl-3-pyridinesulfonamide] was tested. Which IC50 did it give?
The IC50 was 442 nM.

For `CNC(=O)N(c1ccc(S(=O)(=O)Nc2cccnn2)cn1)c1cc(Cl)c(-c2cc(OC)nc(C(F)(F)F)c2)cc1OC` [Example 2-6, 6-((5-chloro-2-methoxy-4-(2-methoxy-6-(trifluoromethyl)-4-pyridinyl)phenyl)(methylcarbamoyl)amino)-N-3-pyridazinyl-3-pyridinesulfonamide], which IC50 is on record?
The IC50 was 26 nM.

For `CNC(=O)N(c1ccc(S(=O)(=O)Nc2ccon2)cn1)c1cc(-c2cc(F)cc(Cl)c2)ccc1OC` [Example 4-4, 6-((3′-chloro-5′-fluoro-4-methoxy-3-biphenylyl)(methylcarbamoyl)amino)-N-3-isoxazolyl-3-pyridinesulfonamide], which IC50 is on record?
The IC50 was 173 nM.

`CNC(=O)N(c1ccc(S(=O)(=O)Nc2ccon2)cn1)c1cc(Cl)c(-c2cc(Cl)cnc2OC)cc1OC` [Example 1-41, 6-((5-chloro-4-(5-chloro-2-methoxy-3-pyridinyl)-2-methoxyphenyl)(methylcarbamoyl)amino)-N-3-isoxazolyl-3-pyridinesulfonamide] was tested. Which IC50 did it give?
Its IC50 is 166 nM.

With `CNC(=O)N(c1ccc(S(=O)(=O)Nc2ccon2)cn1)c1cc(Cl)c(-c2cc(Cl)cc(C#N)c2)cc1OC` [Example 1-53, 6-((2,3′-dichloro-5′-cyano-5-methoxy-4-biphenylyl)(methylcarbamoyl)amino)-N-3-isoxazolyl-3-pyridinesulfonamide] as the compound, how does the IC50 read?
Its IC50 is 48 nM.

`CNC(=O)N(c1ccc(S(=O)(=O)Nc2ccon2)cn1)c1cc(Cl)c(-c2cccc(OCC(F)(F)F)c2)cc1OC` [Example 1-37, 6-((2-chloro-5-methoxy-3′-(2,2,2-trifluoroethoxy)-4-biphenylyl)(methylcarbamoyl)amino)-N-3-isoxazolyl-3-pyridinesulfonamide] was tested. Which IC50 did it give?
Its IC50 is 11 nM.

How did the IC50 turn out when `CNC(=O)N(c1ccc(S(=O)(=O)Nc2ccon2)cn1)c1cc(Cl)c(-c2ccc(F)c(F)c2)cc1OC` [Example 1-65, 6-((2-chloro-3′,4′-difluoro-5-methoxy-4-biphenylyl)(methylcarbamoyl)amino)-N-3-isoxazolyl-3-pyridinesulfonamide] was run?
The IC50 was 54 nM.

How did the IC50 turn out when `CNC(=O)N(c1ccc(S(=O)(=O)Nc2nocc2C)cn1)c1cc(F)c(-c2ccc(F)c(C(F)(F)F)c2)cc1OC` [Example 2-13, 6-(1-(2,4′-difluoro-5-methoxy-3′-(trifluoromethyl)-[1,1′-biphenyl]-4-yl)-3-methylureido)-N-(4-methylisoxazol-3-yl)pyridine-3-sulfonamide] was run?
Its IC50 is 116 nM.

How did the IC50 turn out when `CNC(=O)N(c1ccc(S(=O)(=O)Nc2ccon2)cn1)c1cc(Cl)c(C2CC2)cc1OC` [Example 1-59, 6-((5-chloro-4-cyclopropyl-2-methoxyphenyl)(methylcarbamoyl)amino)-N-3-isoxazolyl-3-pyridinesulfonamide] was run?
The IC50 was 3020 nM.

Which IC50 does the source give for `COc1cc(-c2cc(OC)c(N(C(N)=O)c3ccc(S(=O)(=O)Nc4ccon4)cn3)cc2Cl)cc(C(F)(F)F)c1` [Example 5-4, 6-(carbamoyl(2-chloro-3′,5-dimethoxy-5′-(trifluoromethyl)-4-biphenylyl)amino)-N-3-isoxazolyl-3-pyridinesulfonamide] here?
The IC50 was 7 nM.

For `CNC(=O)N(c1ccc(S(=O)(=O)Nc2ccon2)cn1)c1cc(Cl)c(-c2cc(OC)c(F)c(OC)c2)cc1OC` [Example 1-66, 6-((2-chloro-4′-fluoro-3′,5,5′-trimethoxy-4-biphenylyl)(methylcarbamoyl)amino)-N-3-isoxazolyl-3-pyridinesulfonamide], which IC50 is on record?
The IC50 was 59 nM.

For `CNC(=O)N(c1ccc(S(=O)(=O)Nc2ccon2)cn1)c1cc(F)c(-c2ccc(F)c(Cl)c2)cc1OC` [Example 1-21, 6-((3′-chloro-2,4′-difluoro-5-methoxy-4-biphenylyl)(methylcarbamoyl)amino)-N-3-isoxazolyl-3-pyridinesulfonamide], which IC50 is on record?
The IC50 was 37 nM.

With `CNC(=O)N(c1ccc(S(=O)(=O)Nc2ccon2)cn1)c1cc(F)c(-c2ccc(Cl)c(C(F)(F)F)c2)cc1OC` [Example 1-11, 6-((4′-chloro-2-fluoro-5-methoxy-3′-(trifluoromethyl)-4-biphenylyl)(methylcarbamoyl)amino)-N-3-isoxazolyl-3-pyridinesulfonamide] as the compound, how does the IC50 read?
The IC50 was 14 nM.

With `CNC(=O)N(c1ccc(S(=O)(=O)Nc2ccon2)cn1)c1cc(-c2ccc(C)c(Cl)c2)c(Cl)cc1OC` [Example 4-9, 6-((3′,6-dichloro-4-methoxy-4′-methyl-3-biphenylyl)(methylcarbamoyl)amino)-N-3-isoxazolyl-3-pyridinesulfonamide] as the compound, how does the IC50 read?
The IC50 was 76 nM.

Which IC50 does the source give for `CNC(=O)N(c1ccc(S(=O)(=O)Nc2ccon2)cn1)c1cc(Cl)c(-c2cccc(C3CC3)c2)cc1OC` [Example 1-38, 6-((2-chloro-3′-cyclopropyl-5-methoxy-4-biphenylyl)(methylcarbamoyl)amino)-N-3-isoxazolyl-3-pyridinesulfonamide] here?
The IC50 was 21 nM.

With `CNC(=O)N(c1ccc(S(=O)(=O)Nc2ncccn2)cn1)c1cc(Cl)c(-c2ccc(F)c(OCC(F)(F)F)c2)cc1OC` [Example 3-1, 6-((2-chloro-4′-fluoro-5-methoxy-3′-(2,2,2-trifluoroethoxy)-4-biphenylyl)(methylcarbamoyl)amino)-N-2-pyrimidinyl-3-pyridinesulfonamide] as the compound, how does the IC50 read?
Its IC50 is 33 nM.

`CNC(=O)N(c1ccc(S(=O)(=O)Nc2ccon2)cn1)c1cc(-c2cc(Cl)cc(OC)c2)ccc1OC` [Example 4-1, 6-((3′-chloro-4,5′-dimethoxy-3-biphenylyl)(methylcarbamoyl)amino)-N-3-isoxazolyl-3-pyridinesulfonamide] was tested. Which IC50 did it give?
Its IC50 is 461 nM.

For `CNC(=O)N(c1ccc(S(=O)(=O)Nc2ccon2)cn1)c1cc(F)c(-c2cc(OC)cc(OC(F)(F)F)c2)cc1OC` [Example 1-7, 6-((2-fluoro-3′,5-dimethoxy-5′-(trifluoromethoxy)-4-biphenylyl)(methylcarbamoyl)amino)-N-3-isoxazolyl-3-pyridinesulfonamide], which IC50 is on record?
Its IC50 is 18 nM.

How did the IC50 turn out when `CNC(=O)N(c1ccc(S(=O)(=O)Nc2ccon2)cn1)c1cc(F)c(-c2ccc(F)c(OC(F)(F)F)c2)cc1OC` [Example 1-27, 6-((2,4′-difluoro-5-methoxy-3′-(trifluoromethoxy)-4-biphenylyl)(methylcarbamoyl)amino)-N-3-isoxazolyl-3-pyridinesulfonamide] was run?
Its IC50 is 20 nM.

For `CNC(=O)N(c1ccc(S(=O)(=O)Nc2ccon2)cn1)c1cc(F)c(-c2cc(OC)cc(C(F)(F)F)c2)cc1OC` [Example 1-9, 6-((2-fluoro-3′,5-dimethoxy-5′-(trifluoromethyl)-4-biphenylyl)(methylcarbamoyl)amino)-N-3-isoxazolyl-3-pyridinesulfonamide], which IC50 is on record?
The IC50 was 18 nM.

`CNC(=O)N(c1ccc(S(=O)(=O)Nc2ccon2)cn1)c1cc(F)c(-c2cccc(OC(F)(F)F)c2)cc1OC` [Example 1-14, 6-((2-fluoro-5-methoxy-3′-(trifluoromethoxy)-4-biphenylyl)(methylcarbamoyl)amino)-N-3-isoxazolyl-3-pyridinesulfonamide] was tested. Which IC50 did it give?
The IC50 was 17 nM.

For `COc1cc(-c2ccc(Cl)c(F)c2)c(Cl)cc1N(C(N)=O)c1ccc(S(=O)(=O)Nc2ccon2)cn1` [Example 5-2, 6-(carbamoyl(2,4′-dichloro-3′-fluoro-5-methoxy-4-biphenylyl)amino)-N-3-isoxazolyl-3-pyridinesulfonamide], which IC50 is on record?
Its IC50 is 10 nM.

How did the IC50 turn out when `CNC(=O)N(c1ccc(S(=O)(=O)Nc2ncccn2)cn1)c1cc(Cl)c(-c2ccc(Cl)c(C#N)c2)cc1OC` [Example 1-75, 6-((2,4′-dichloro-3′-cyano-5-methoxy-4-biphenylyl)(methylcarbamoyl)amino)-N-2-pyrimidinyl-3-pyridinesulfonamide] was run?
The IC50 was 106 nM.

With `CNC(=O)N(c1ccc(S(=O)(=O)Nc2ccon2)cn1)c1cc(Cl)c(-c2cc(F)c(F)c(F)c2)cc1OC` [Example 1-52, 6-((2-chloro-3′,4′,5′-trifluoro-5-methoxy-4-biphenylyl)(methylcarbamoyl)amino)-N-3-isoxazolyl-3-pyridinesulfonamide] as the compound, how does the IC50 read?
The IC50 was 31 nM.

Which IC50 does the source give for `CNC(=O)N(c1ccc(S(=O)(=O)Nc2ccon2)cn1)c1cc(Cl)c(-c2ccc(Cl)c(F)c2)cc1OC` [Example 1-63, 6-((2,4′-dichloro-3′-fluoro-5-methoxy-4-biphenylyl)(methylcarbamoyl)amino)-N-3-isoxazolyl-3-pyridinesulfonamide] here?
Its IC50 is 28 nM.

How did the IC50 turn out when `CNC(=O)N(c1ccc(S(=O)(=O)Nc2ncccn2)cn1)c1cc(F)c(-c2ccc(F)c(C(F)(F)F)c2)cc1OC` [Example 1-85, 6-((2,4′-difluoro-5-methoxy-3′-(trifluoromethyl)-4-biphenylyl)(methylcarbamoyl)amino)-N-2-pyrimidinyl-3-pyridinesulfonamide] was run?
The IC50 was 32 nM.
